Data taken from patent publication US7371773B2, “Breast cancer resistance protein (BCRP) inhibitor” (Kabushiki Kaisha Yakult Honsha, priority 2003, dated 2008).
Values after ≈ are worked out from the molar mass of the structure shown.

System: A549/SN-38-4 cell line
Assay: Overcoming anticancer drug resistance of A549/SN-38-4 cell line
Format: cell-based, human
Settings: not given
Experimental: The effect of a diphenylacrylonitrile derivative on BCRP-mediated anticancer drug resistance was studied by use of the human lung cancer A549/SN-38-4 cell line, which had acquired anticancer drug resistance through BCRP expression. The human lung cancer A549 cell line or the A549/SN-38-4 cell line was suspended in 10% FBS/Ham's F-12, and the resultant suspension was inoculated into a 96-well microplate, followed by culturing at 5% CO2 and 37° C. overnight (2×10^3 cells/50 μL/well). Thereafter, a 10% FBS/Ham's F-12 solution (25 μL) containing a diphenylacrylonitrile derivative and SN-38 or mitoxantrone was added to each of the wells, followed by culturing at 5% CO2 and 37° C. for 48 hours. After completion of culturing, the number of viable cells was counted by use of TetraColor ONE according to the attached instruction manual. […] The greater the relative resistance value, the higher the level of acquired resistance.

Compound	Resistance overcoming effect EC50 [µg/mL]
COc1ccc(/C(C#N)=C/c2ccc(OP(=O)(O)O)cc2)cc1OC [Compound 70, mono-{4-[(Z)-2-cyano-2-(3,4-dimethoxy-phenyl)-vinyl]-phenyl} phosphate]	0.24
COc1ccc(/C(C#N)=C/c2ccc(OP(=O)(O)O)c(OC)c2)cc1OC [Compound 71, mono-{4-[(Z)-2-cyano-2-(3,4-dimethoxy-phenyl)-vinyl]-2-methoxy-phenyl} phosphate]	0.29

Same assay, conditions: Homo sapiens, A549; SN-38 resistance, concentration for 50% reduction of relative resistance value, 48 hours; read-out: Resistance overcoming effect EC50

Compound	EC50 [µg/mL]
COc1ccc(/C(C#N)=C/c2cc([N+](=O)[O-])ccc2F)cc1OC [Compound 39, (Z)-2-(3,4-dimethoxy-phenyl)-3-(2-fluoro-5-nitro-phenyl)-acrylonitrile]	0.027 (≈ 0.0822 µM)
CCOc1ccc([N+](=O)[O-])cc1/C=C(\C#N)c1ccc(OC)c(OC)c1 [Compound 52, (Z)-2-(3,4-dimethoxy-phenyl)-3-(2-ethoxy-5-nitro-phenyl)-acrylonitrile]	0.024 (≈ 0.0677 µM)
COc1ccc(/C(C#N)=C/c2ccc(C#N)cc2)cc1OC [Compound 21, 4-[(Z)-2-cyano-2-(3,4-dimethoxy-phenyl)-vinyl]-benzonitrile]	0.022 (≈ 0.0758 µM)
COc1cc(/C(C#N)=C/c2ccc(OC(C)=O)cc2)cc(OC)c1OC [Compound 65, 4-[(Z)-2-cyano-2-(3,4,5-trimethoxy-phenyl)-vinyl]-phenyl acetate]	0.2
COc1ccc(/C(C#N)=C/c2cc(F)c(F)cc2F)cc1OC [Compound 30, (Z)-2-(3,4-dimethoxy-phenyl)-3-(2,4,5-trifluoro-phenyl)-acrylonitrile]	0.041 (≈ 0.128 µM)
CCOC(=O)CCCCCCOc1ccc(/C=C(\C#N)c2ccc(OC)c(OC)c2)cc1 [Compound 66, ethyl 7-[4-[(Z)-2-cyano-2-(3,4-dimethoxy-phenyl)-vinyl]-phenoxy]-heptanoate]	0.71 (≈ 1.62 µM)
COc1ccc(/C(C#N)=C/c2ccc(O)c([N+](=O)[O-])c2)cc1OC [Compound 45, (Z)-2-(3,4-dimethoxy-phenyl)-3-(4-hydroxy-3-nitro-phenyl)-acrylonitrile]	0.13 (≈ 0.398 µM)
COc1ccc(/C(C#N)=C/c2cccc([N+](=O)[O-])c2)cc1OC [Compound 33, (Z)-2-(3,4-dimethoxy-phenyl)-3-(3-nitro-phenyl)-acrylonitrile]	0.019 (≈ 0.0612 µM)
COc1ccc(/C(C#N)=C/c2ccc(O)cc2)cc1OC.[Na] [Compound 17, (Z)-2-(3,4-dimethoxy-phenyl)-3-(4-hydroxy-phenyl)-acrylonitrile sodium salt]	0.018
COc1ccc(/C=C(\C#N)c2ccc(OC(C)=O)cc2)cc1OC [Compound 61, 4-[(Z)-1-cyano-2-(3,4-dimethoxy-phenyl)-vinyl]phenyl acetate]	0.024
COc1ccc(/C(C#N)=C/c2cc(F)cc(F)c2F)cc1OC [Compound 28, (Z)-2-(3,4-dimethoxy-phenyl)-3-(2,3,5-trifluoro-phenyl)-acrylonitrile]	0.011 (≈ 0.0345 µM)
COc1ccc(/C(C#N)=C/c2ccc(OC(=O)CCC(=O)Oc3ccc(/C=C(\C#N)c4ccc(OC)c(OC)c4)cc3)cc2)cc1OC [Compound 43, bis-{4-[(Z)-2-cyano-2-(3,4-dimethoxy-phenyl)-vinyl]-phenyl} succinate]	0.12
COc1ccc(/C(C#N)=C/c2ccc(Cl)c([N+](=O)[O-])c2)cc1OC [Compound 38, (Z)-3-(4-chloro-3-nitro-phenyl)-2-(3,4-dimethoxy-phenyl)-acrylonitrile]	0.037 (≈ 0.107 µM)
COc1ccc(/C(C#N)=C/c2cc(F)c(F)c(F)c2)cc1OC [Compound 31, (Z)-2-(3,4-dimethoxy-phenyl)-3-(3,4,5-trifluoro-phenyl)-acrylonitrile]	0.015 (≈ 0.047 µM)
COC(=O)c1ccc(/C=C(\C#N)c2ccc(OC)c(OC)c2)cc1 [Compound 36, methyl 4-[(Z)-2-cyano-2-(3,4-dimethoxy-phenyl)-vinyl]-benzoate]	0.2 (≈ 0.619 µM)
COc1ccc(C(C#N)=Cc2cccc(NC(C)=O)c2)cc1OC [Compound 72, N-[3-[2-cyano-2-(3,4-dimethoxy-phenyl)-vinyl]-phenyl]-acetamide]	0.028 (≈ 0.0869 µM)

Next, values leading:

EC50 [µg/mL]	Compound
0.013 (≈ 0.0462 µM)	COc1ccc(/C=C(\C#N)c2ccc(O)cc2)cc1OC [Compound 48, (Z)-3-(3,4-dimethoxy-phenyl)-2-(4-hydroxy-phenyl)-acrylonitrile]
0.016 (≈ 0.0492 µM)	COc1ccc(/C=C(\C#N)c2ccc(OC)c(OC)c2)cc1OC [Compound 56, (Z)-2,3-bis-(3,4-dimethoxy-phenyl)-acrylonitrile]
0.024	CCOc1cc(/C(C#N)=C/c2ccc(OC)c(OC)c2)ccc1OC(C)=O [Compound 63, 4-[(Z)-1-cyano-2-(3,4-dimethoxy-phenyl)-vinyl]-2-ethoxy-phenyl acetate]
0.58 (≈ 1.64 µM)	COc1ccc(/C(C#N)=C/c2cc3c(cc2[N+](=O)[O-])OCO3)cc1OC [Compound 46, (Z)-2-(3,4-dimethoxy-phenyl)-3-(6-nitro-benzo[1,3]dioxol-5-yl)-acrylonitrile]
0.065 (≈ 0.134 µM)	COc1ccc(/C=C(\C#N)c2ccc(OC(=O)CCCCCCCBr)cc2)cc1OC [Compound 67, 4-[(Z)-1-cyano-2-(3,4-dimethoxy-phenyl)-vinyl]-phenyl 8-bromo-octanoate]
0.01	COc1ccc(/C=C(\C#N)c2ccc(OC(C)=O)c(F)c2)cc1OC [Compound 64, 4-[(Z)-1-cyano-2-(3,4-dimethoxy-phenyl)-vinyl]-2-fluoro-phenyl acetate]
0.0073 (≈ 0.0242 µM)	COc1ccc(/C(C#N)=C/c2cc(F)ccc2F)cc1OC [Compound 24, (Z)-3-(2,5-difluoro-phenyl)-2-(3,4-dimethoxy-phenyl)-acrylonitrile]
0.048 (≈ 0.159 µM)	COc1ccc(/C(C#N)=C/c2ccc(F)cc2F)cc1OC [Compound 23, (Z)-3-(2,4-difluoro-phenyl)-2-(3,4-dimethoxy-phenyl)-acrylonitrile]
0.053 (≈ 0.187 µM)	COc1ccc(/C(C#N)=C/c2ccccc2F)cc1OC [Compound 20, (Z)-2-(3,4-dimethoxy-phenyl)-3-(2-fluoro-phenyl)-acrylonitrile]
0.1 (≈ 0.313 µM)	COc1ccc(/C(C#N)=C/c2c(F)ccc(F)c2F)cc1OC [Compound 29, (Z)-2-(3,4-dimethoxy-phenyl)-3-(2,3,6-trifluoro-phenyl)-acrylonitrile]
0.2 (≈ 0.56 µM)	N#C/C(=C\c1ccc(O)cc1)c1cc(C(F)(F)F)cc(C(F)(F)F)c1 [Compound 49, (Z)-2-(3,5-bis-trifluoromethyl-phenyl)-3-(4-hydroxy-phenyl)-acrylonitrile]
0.038	CCOC(=O)CCC(=O)Oc1ccc(/C=C(\C#N)c2ccc(OC)c(OC)c2)cc1 [Compound 42, 4-[(Z)-2-cyano-2-(3,4-dimethoxy-phenyl)-vinyl]-phenyl ethyl succinate]
0.053 (≈ 0.143 µM)	COCCOCOc1ccc(/C(C#N)=C/c2ccc(OC)c(OC)c2)cc1 [Compound 47, (Z)-3-(3,4-dimethoxy-phenyl)-2-[4-(2-methoxy-ethoxymethoxy)-phenyl]-acrylonitrile]
0.82 (≈ 2.51 µM)	COc1ccc(/C(C#N)=C/c2cc([N+](=O)[O-])ccc2O)cc1OC [Compound 76, (Z)-2-(3,4-dimethoxy-phenyl)-3-(2-hydroxy-5-nitro-phenyl)-acrylonitrile]
0.047 (≈ 0.147 µM)	COc1ccc(/C(C#N)=C/c2ccc(F)c(F)c2F)cc1OC [Compound 27, (Z)-2-(3,4-dimethoxy-phenyl)-3-(2,3,4-trifluoro-phenyl)-acrylonitrile]
0.094 (≈ 0.334 µM)	COc1ccc(/C(C#N)=C\c2ccc(O)cc2)cc1OC [Compound 50, (E)-2-(3,4-dimethoxy-phenyl)-3-(4-hydroxy-phenyl)-acrylonitrile]
0.3 (≈ 0.914 µM)	COc1ccc(/C(C#N)=C/c2ccc(F)c([N+](=O)[O-])c2)cc1OC [Compound 77, (Z)-2-(3,4-dimethoxy-phenyl)-3-(4-fluoro-3-nitro-phenyl)-acrylonitrile]
0.022 (≈ 0.073 µM)	COc1ccc(/C(C#N)=C/c2cccc(F)c2F)cc1OC [Compound 22, (Z)-3-(2,3-difluoro-phenyl)-2-(3,4-dimethoxy-phenyl)-acrylonitrile]
0.033 (≈ 0.0852 µM)	COCCOCOc1ccc(/C=C(\C#N)c2ccc(OC)c(OC)c2)cc1F [Compound 58, (Z)-2-(3,4-dimethoxy-phenyl)-3-[3-fluoro-4-(2-methoxy-ethoxymethoxy)-phenyl]-acrylonitrile]
< 0.005	COc1ccc(/C(C#N)=C/c2ccc(F)c(F)c2)cc1OC [Compound 25, (Z)-3-(3,4-difluoro-phenyl)-2-(3,4-dimethoxy-phenyl)-acrylonitrile]
0.053 (≈ 0.155 µM)	COc1ccc(/C(C#N)=C/c2cc(O)c(OC)c(OC)c2)cc1OC [Compound 78, (Z)-2-(3,4-dimethoxy-phenyl)-3-(3-hydroxy-4,5-dimethoxy-phenyl)-acrylonitrile]

Same assay, conditions: SN-38 resistance, concentration for 50% reduction of relative resistance value, 48 hours

Compound	Resistance overcoming effect EC50 [µg/mL]
(Z)-2-(3,4-dimethoxyphenyl)-3-[4-(6-phospho-β-D-glucopyranosyl)-phenyl]-acrylonitrile sodium salt [Compound 75]	>1.0
(Z)-2-(3,4-dimethoxyphenyl)-3-(4-β-maltotriosyl-phenyl)-acrylonitrile [Compound 54]	0.26
(Z)-2-(3,4-dimethoxyphenyl)-3-(4-β-maltosyl-phenyl)-acrylonitrile [Compound 51]	0.045
CCN(CC)CC.COc1ccc(/C(C#N)=C/c2ccc(OS(=O)(=O)O)cc2)cc1OC [Compound 74, sulphoric acid mono-{4-[(Z)-2-cyano-2-(3,4-dimethoxy-phenyl)-vinyl]-phenyl} ester triethylammonium salt]	>1.0
